US6770020B2 (priority 2001, dated 2004)

What was measured:
[1] = system: human glioblastoma cells (TB 10); test: ICP-MS Gd uptake by glioblastoma cell cultures exposed to Gd-DTPA; details: for cellular Gd concentration: 10 mg/ml Gd-DTPA
[2] = system: human glioblastoma cells (TB 10); test: TOF-SIMS analysis of Gd in individual cells; assay type: cell-based
Text: Time of Flight Secondary Ion Mass-Spectrometry (TOF-SIMS), another technique for microchemical analysis^(22) was utilized to validate data from MEPHISTO spectromicroscopy, in addition to the ICP-MS data. Cell samples were bombarded with either 15 or 25 keV Ga^+ ions, focused in a microscopic beam, which induced desorption of the surface atoms. The emitted ions were then accelerated, and detected by a high resolution mass spectrometer. By scanning the microscopic Ga ion beam, TOF-SIMS produced images of the cell surface, and distribution maps of specific element isotopes, with a spatial resolution of […]. High resolution mass spectra were obtained from microscopic areas, selected as the region of interest in the cell images, to allow quantitative comparison of Gd concentration in sub-cellular regions.
The results obtained in MEPHISTO were corroborated by the TOF-SIMS) data, an independent technique to evaluate elemental distributions at a microscopic scale. Two cells were studied from one of the etched 72-hour exposure samples used in the MEPHISTO experiment. Note in the table that the concentration of Gd is consistently higher in nuclei than in cytoplasm.
TOF-SIMS analysis of a non-etched cell at the nucleus position (also Gd-exposed for 72 hours), was performed before and after strong sputtering to probe the Gd concentration on the membrane and inside the nucleus. The total Gd ion yield, calculated as for the first column of Table 2, gave 0.055 cts/s on the unsputtered sample.
After 30 second sputtering (with 25 keV Ga˜ ions) to remove surface contamination, the total Gd ion yield from the cell membrane was 0.182 cts/s. After 16 minute sputtering to penetrate about […] into the nucleus, the total Gd ion yield was 1.844 cts/s.

[3] = Cell 1, Cytoplasm, 72 hours exposure
[4] = Cell 1, Nucleus, 72 hours exposure
[5] = Cell 2, Cytoplasm, 72 hours exposure
[6] = Cell 2, Nucleus, 72 hours exposure

O=C([O-])CN(CCN(CC(=O)[O-])CC(=O)O)CCN(CC(=O)[O-])CC(=O)O.[Gd+3] [Gd-DTPA, gadolinium diethylene triamine pentaacetic acid]
cellular Gd concentration ([1]; 120-hour exposure (maximum)): 600 µg/mL | cellular Gd concentration ([1]; after 24 hours): more than 250 μg/ml | cellular Gd concentration vs. exposure time ([1]; 10 mg/ml, up to 120 hours, FIG. 1): increases with the exposure time | concentration of uptaken Gd vs. exposure concentration ([1]; 1 to 25 mg/ml Gd-DTPA, 72 hours, FIG. 3): increases with the exposure concentration | maximum cellular concentration relative to the 250 μg/ml recommended for GdNCT ([1]; 120-hour exposure): 2.4 times | Ratio nucleus:cytoplasm, ^155Gd ([2]; Cell 1, 72 hours exposure): 2.51 | Ratio nucleus:cytoplasm, ^155GdO ([2]; Cell 1, 72 hours exposure): 2.52 | Ratio nucleus:cytoplasm, ^156Gd ([2]; Cell 1, 72 hours exposure): 1.89 | Ratio nucleus:cytoplasm, ^156GdO ([2]; Cell 1, 72 hours exposure): 2.03 | Ratio nucleus:cytoplasm, ^157GdO ([2]; Cell 1, 72 hours exposure): 2.06 | Ratio nucleus:cytoplasm, ^158Gd ([2]; Cell 1, 72 hours exposure): 1.53 | Ratio nucleus:cytoplasm, ^160Gd ([2]; Cell 1, 72 hours exposure): 1.99 | Ratio nucleus:cytoplasm, ^160GdO ([2]; Cell 1, 72 hours exposure): 2.00 | Ratio nucleus:cytoplasm, total Gd ion yield ([2]; Cell 1, 72 hours exposure): 2.02 | Detection Rate, ^155Gd [2, 3]: 0.41 Counts/s | Detection Rate, ^155GdO [2, 3]: 0.63 Counts/s | Detection Rate, ^156Gd [2, 3]: 0.91 Counts/s | Detection Rate, ^156GdO [2, 3]: 0.91 Counts/s | Detection Rate, ^157GdO [2, 3]: 2.08 Counts/s | Detection Rate, ^158Gd [2, 3]: 0.89 Counts/s | Detection Rate, ^160Gd [2, 3]: 0.68 Counts/s | Detection Rate, ^160GdO [2, 3]: 0.94 Counts/s | Detection Rate, total Gd ion yield [2, 3]: 6.44 Counts/s | Detection Rate, ^155Gd [2, 4]: 1.03 Counts/s | Detection Rate, ^155GdO [2, 4]: 1.59 Counts/s | Detection Rate, ^156Gd [2, 4]: 1.72 Counts/s | Detection Rate, ^156GdO [2, 4]: 1.85 Counts/s | Detection Rate, ^157GdO [2, 4]: 2.23 Counts/s | Detection Rate, ^158Gd [2, 4]: 1.36 Counts/s | Detection Rate, ^160Gd [2, 4]: 1.35 Counts/s | Detection Rate, ^160GdO [2, 4]: 1.88 Counts/s | Detection Rate, total Gd ion yield [2, 4]: 12.98 Counts/s | Ratio nucleus:cytoplasm, ^155Gd ([2]; Cell 2, 72 hours exposure): 1.60 | Ratio nucleus:cytoplasm, ^155GdO ([2]; Cell 2, 72 hours exposure): 1.34 | Ratio nucleus:cytoplasm, ^156Gd ([2]; Cell 2, 72 hours exposure): 1.86 | Ratio nucleus:cytoplasm, ^156GdO ([2]; Cell 2, 72 hours exposure): 1.41 | Ratio nucleus:cytoplasm, ^157GdO ([2]; Cell 2, 72 hours exposure): 1.56 | Ratio nucleus:cytoplasm, ^158Gd ([2]; Cell 2, 72 hours exposure): 1.84 | Ratio nucleus:cytoplasm, ^160Gd ([2]; Cell 2, 72 hours exposure): 1.63 | Ratio nucleus:cytoplasm, ^160GdO ([2]; Cell 2, 72 hours exposure): 1.72 | Ratio nucleus:cytoplasm, total Gd ion yield ([2]; Cell 2, 72 hours exposure): 1.60 | Detection Rate, ^155Gd [2, 5]: 0.23 Counts/s | Detection Rate, ^155GdO [2, 5]: 0.38 Counts/s | Detection Rate, ^156Gd [2, 5]: 0.37 Counts/s | Detection Rate, ^156GdO [2, 5]: 0.51 Counts/s | Detection Rate, ^157GdO [2, 5]: 0.57 Counts/s | Detection Rate, ^158Gd [2, 5]: 0.32 Counts/s | Detection Rate, ^160Gd [2, 5]: 0.33 Counts/s | Detection Rate, ^160GdO [2, 5]: 0.5 Counts/s | Detection Rate, total Gd ion yield [2, 5]: 3.21 Counts/s | Detection Rate, ^155Gd [2, 6]: 0.37 Counts/s | Detection Rate, ^155GdO [2, 6]: 0.51 Counts/s | Detection Rate, ^156Gd [2, 6]: 0.69 Counts/s | Detection Rate, ^156GdO [2, 6]: 0.72 Counts/s | Detection Rate, ^157GdO [2, 6]: 0.89 Counts/s | Detection Rate, ^158Gd [2, 6]: 0.59 Counts/s | Detection Rate, ^160Gd [2, 6]: 0.54 Counts/s | Detection Rate, ^160GdO [2, 6]: 0.86 Counts/s | Detection Rate, total Gd ion yield [2, 6]: 5.13 Counts/s | total Gd ion yield ([2]; non-etched cell at the nucleus position, 72 hours exposure, unsputtered sample): 0.055 cts/s | total Gd ion yield from the cell membrane ([2]; non-etched cell, 72 hours exposure, after 30 second sputtering): 0.182 cts/s | total Gd ion yield ([2]; non-etched cell, 72 hours exposure, after 16 minute sputtering to penetrate about 1 pm into the nucleus): 1.844 cts/s
